Tested on: MCF7; call rule not given here
Assay: Cytotoxicity against human MCF7 cells after 15 days by clonogenic assay
Type: functional, cell-based

SMILES	IC50 (mcf7)	IC50 (Homo sapiens, MCF7, 360 h, read-out: IC50)
CO[C@H]1/C=C(\C)Cc2occ(C)c2C(=O)C[C@H](C)C1 (relative stereo)	Not Active	–
C=C1/C=C/[C@H](OC)[C@@H](C)CC(=O)c2c(C)coc2C1 (relative stereo)	Not Active	–
CO[C@H]1/C=C(/C)Cc2occ(C)c2C(=O)[C@@H](OC(C)=O)[C@H](C)C1 (relative stereo)	Not Active	–
C=C1Cc2occ(C)c2C(=O)C[C@H](C)C[C@@H]2O[C@@H]12 (relative stereo)	–	40 µM
